The values that follow come from BindingDB's records for doi:10.1021/jm00161a009 (1986).

Structures are written as SMILES.

The assay addresses T1, Carnitine palmitoyl transferase I liver isoform (Sus scrofa, UniProt Q9MYX2).
T1 sequence (Q9MYX2 whole entry): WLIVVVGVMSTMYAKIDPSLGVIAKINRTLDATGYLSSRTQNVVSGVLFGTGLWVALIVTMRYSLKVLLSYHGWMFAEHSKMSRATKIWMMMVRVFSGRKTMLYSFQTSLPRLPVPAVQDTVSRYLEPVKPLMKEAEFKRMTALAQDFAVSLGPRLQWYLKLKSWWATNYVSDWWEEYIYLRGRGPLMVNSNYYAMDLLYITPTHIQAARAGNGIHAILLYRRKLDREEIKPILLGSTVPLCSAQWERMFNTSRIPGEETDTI
The assay can be described thus: ChEBML_44012. As for the experimental part: Compound was tested for its inhibitory activity against carnitine palmitoyl transferase-A (CPT-A)
`CCCCCCCCCCCCCCC1(C(=O)OC)CO1` (racemic) [2-Tetradecyl-oxirane-2-carboxylic acid methyl ester] yielded a 50% inhibitory concentration (IC50) of 300 nM.
Compound `CCCCCCCCCCC1(C(=O)OC)CO1` (configuration not stated) [2-Decyl-oxirane-2-carboxylic acid methyl ester] gave an IC50 of 680 nM.
In the case of `CCCCCCCCCCCCC1(C(=O)OC)CO1` (configuration not stated) [2-Dodecyl-oxirane-2-carboxylic acid methyl ester], it took 600 nM to reach half-maximal inhibition (IC50).
Regarding `CCCCCCC1(C(=O)OC)CO1` (configuration not stated) [2-Hexyl-oxirane-2-carboxylic acid methyl ester], it took 136000 nM to reach half-maximal inhibition (IC50). Compared with the last compound, the IC50 is about 230-fold higher.
The value for `CCCCCCCCCCCCCC1(C(=O)OC)CO1` (configuration not stated) [2-Tridecyl-oxirane-2-carboxylic acid methyl ester] was 500 nM.
The value for `CCCCCCCCCCCC1(C(=O)OC)CO1` (configuration not stated) [2-Undecyl-oxirane-2-carboxylic acid methyl ester] was 1160 nM.
The value for `CCCCCCCCCCCCCCC1(C(=O)O)CO1` (stereo not drawn) [(+/-)2-Tetradecyl-oxirane-2-carboxylic acid] was 900 nM.
